Reference: ChEMBL document CHEMBL1165911, “Elaborate ligand-based pharmacophore exploration and QSAR analysis guide the synthesis of novel pyridinium-based potent beta-secretase inhibitory leads” (Bioorg Med Chem, 2010)
pIC50: −log10 of the molar value. Peptide text beside a SMILES is read from it. * marks the point of attachment. Boc = CC(C)(C)OC(=O)*; OBn = c1ccc(CO*)cc1; Bn = c1ccc(C*)cc1

How the values were obtained:
Beta-secretase 1 [1] = molecular target: T1, Beta-secretase 1 (Homo sapiens, UniProt P56817); assay: Inhibition of BACE1 at 50 uM after 2 hrs by FRET assay
Beta-secretase 1 [2] = molecular target: T1, Beta-secretase 1
Description: Inhibition of BACE1 after 2 hrs by FRET assay

Renin (Homo sapiens) = molecular target: T2, Renin (Homo sapiens) (UniProt P00797); assay: Inhibition of renin at 50 uM after 30 mins by fluorometric assay
T2 sequence (whole entry): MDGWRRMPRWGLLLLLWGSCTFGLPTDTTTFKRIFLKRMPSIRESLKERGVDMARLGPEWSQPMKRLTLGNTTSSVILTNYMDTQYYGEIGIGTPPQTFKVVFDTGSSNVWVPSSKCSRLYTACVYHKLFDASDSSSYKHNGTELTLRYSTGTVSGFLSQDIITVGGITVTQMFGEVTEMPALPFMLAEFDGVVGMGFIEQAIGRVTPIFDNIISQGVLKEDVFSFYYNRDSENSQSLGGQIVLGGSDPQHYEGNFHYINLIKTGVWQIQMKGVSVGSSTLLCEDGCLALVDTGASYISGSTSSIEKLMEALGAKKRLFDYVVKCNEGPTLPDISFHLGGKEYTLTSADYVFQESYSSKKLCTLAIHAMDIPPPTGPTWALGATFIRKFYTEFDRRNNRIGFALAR

T1 sequence (P56817 whole entry): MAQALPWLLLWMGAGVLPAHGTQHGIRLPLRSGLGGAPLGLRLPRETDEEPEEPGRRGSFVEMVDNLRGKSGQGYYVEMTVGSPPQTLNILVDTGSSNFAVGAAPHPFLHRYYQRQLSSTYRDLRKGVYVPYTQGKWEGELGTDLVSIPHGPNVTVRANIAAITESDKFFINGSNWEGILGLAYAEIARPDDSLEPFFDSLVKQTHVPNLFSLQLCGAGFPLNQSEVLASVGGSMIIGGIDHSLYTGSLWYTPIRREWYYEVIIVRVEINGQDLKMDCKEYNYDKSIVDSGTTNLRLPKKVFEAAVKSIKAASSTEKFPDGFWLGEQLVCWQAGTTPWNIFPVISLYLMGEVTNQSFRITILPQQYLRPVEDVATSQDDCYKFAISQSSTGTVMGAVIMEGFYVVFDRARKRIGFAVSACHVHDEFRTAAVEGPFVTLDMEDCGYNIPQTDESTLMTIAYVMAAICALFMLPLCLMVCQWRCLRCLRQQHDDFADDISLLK

Structure (SMILES) | inhibition (Beta-secretase 1 [1]) [%] | pIC50 (Beta-secretase 1 [2]) | inhibition (Renin (Homo sapiens)) [%]
NC(=O)c1ccc[n+](CC(=O)Nc2cccc(NC(=O)c3ccccc3)c2)c1 | 54 | 4.35 | –
COc1ccc(NS(=O)(=O)c2cccc(NC(=O)C[n+]3ccccc3)c2)cc1 | 50 | – | –
O=C(C[n+]1ccccc1)Nc1cccc(NC(=O)c2ccccc2)c1 | 51 | – | –
Cc1ccc(C(=O)Nc2cccc(NC(=O)C[n+]3cccc(C(N)=O)c3)c2)cc1 | 24 | – | –
COc1ccc(NC(=O)c2cccc(NC(=O)C[n+]3cccc(C(N)=O)c3)c2)cc1 | 100 | 5.72 | 0
COc1ccc(NC(=O)c2cccc(NC(=O)C[n+]3ccccc3)c2)cc1 | 100 | 5.43 | 0
Cc1ccc(S(=O)(=O)Nc2cccc(NC(=O)C[n+]3cccc(C(N)=O)c3)c2)cc1 | 4 | – | –
O=C(C[n+]1cccc(C(=O)NCCc2ccccc2)c1)Nc1cccc(NC(=O)c2ccccc2)c1 | 55 | – | –
Cc1ccc(S(=O)(=O)Nc2cccc(NC(=O)C[n+]3cccc(C(=O)NCCc4ccccc4)c3)c2)cc1 | 36 | – | –
COc1ccc(NC(=O)c2cccc(NC(=O)C[n+]3cccc(C(=O)NCCc4ccccc4)c3)c2)cc1 | 44 | – | –
Cc1ccc(C(=O)Nc2cccc(NC(=O)C[n+]3ccccc3)c2)cc1 | 68 | 4.89 | 0
Cc1ccc(NC(=O)c2cccc(NC(=O)C[n+]3cccc(C(N)=O)c3)c2)cc1 | 69 | – | –
O=C(C[n+]1ccccc1)Nc1cccc(C(=O)Nc2ccc(Cl)cc2)c1 | 100 | 6.00 | 0
Cc1ccc(C(=O)Nc2cccc(NC(=O)C[n+]3cccc(C(=O)NCCc4ccccc4)c3)c2)cc1 | 100 | 5.66 | 22
O=C(C[n+]1cccc(C(=O)NCCc2ccccc2)c1)Nc1cccc(C(=O)Nc2ccc(Cl)cc2)c1 | 78 | 4.92 | 26
COc1ccc(NS(=O)(=O)c2cccc(NC(=O)C[n+]3cccc(C(N)=O)c3)c2)cc1 | 34 | – | –
Cc1cccc(NC(=O)c2cccc(NC(=O)C[n+]3cccc(C(N)=O)c3)c2)c1 | 44 | – | –
CC(C)(C)OC(=O)NC(CC(=O)OCc1ccccc1)C(=O)NC(COCc1ccccc1)C(=O)NCC(=O)OCc1ccccc1 (stereo not given) (Boc-Asp(OBn)-Ser(Bn)-Gly-OBn; configuration not given here) | – | 4.00 | –
Clc1ccc(/C=N/Nc2nc(Nc3cccc(Br)c3)nc(N3CCOCC3)n2)cc1 | – | 4.00 | –
O=C(NCc1ccccc1)c1ccc(N2CC3CC(C2)c2cccc(=O)n2C3)c(NS(=O)(=O)c2ccc3c(c2)OCCO3)c1 (stereo not given) | – | 4.00 | –
C=CN(C=C)C(=O)c1cc(OCC(=O)NCCCCCN)cc(C(=O)N[C@H](C)c2ccccc2)c1 | – | 4.60 | –
O=C(O)CCCNC(=O)CCCCC(=O)C(c1ccccc1)c1ccccc1 | – | 3.30 | –
O=C(O)c1cccc(-c2ccc(/C=N/Nc3nc(Nc4ccccc4)nc(N4CCCCC4)n3)o2)c1 | – | 4.00 | –
Oc1c(I)cc(I)cc1/C=N/Nc1nc(NCc2ccccc2)nc(N2CCOCC2)n1 | – | 4.00 | –
Cc1ccc(NC(=O)c2cccc(NC(=O)C[n+]3cccc(C(=O)NCCc4ccccc4)c3)c2)cc1 | 72 | 5.40 | 26
Cc1ccc(NC(=O)c2cccc(NC(=O)C[n+]3ccccc3)c2)cc1 | 42 | – | –
Cc1cccc(NC(=O)c2cccc(NC(=O)C[n+]3ccccc3)c2)c1 | 61 | – | –
NC(=O)c1ccc[n+](CC(=O)Nc2cccc(C(=O)Nc3ccc(Cl)cc3)c2)c1 | 64 | 4.52 | –
Cc1cccc(NC(=O)c2cccc(NC(=O)C[n+]3cccc(C(=O)NCCc4ccccc4)c3)c2)c1 | 58 | – | –
